Like-named read-outs stand apart in the source and are kept apart here.
What was measured:
[1] = tested on: Staphylococcus aureus; test: Bacterial killing (CFUs/sample) on cotton fabric treated with the organo-selenium compound, Gram-positive; format: cell-based
Description: (§1) FIGS. 1A and 1B are graphs that compares the colony forming units (CFUs) per sample of bacteria on a fabric, showing total bacterial killing with the organoselenium compound, and no killing without the organoselenium compound. In this example, the organoselenium compound was applied to the fabric as a reactive dye.
(§2) The technology modifies triazines, a commonly used reactive dye within the textile chemistry for application to impart colors to fabrics, by incorporation of selenium to create a reactive dye with antimicrobial characteristics. Since the cotton manufacturing/processing industry currently relies on annealing of triazine to create colored fabrics, the presented technology can be incorporated into this sector with minimal changes in the production environment. The created compound, diseleniummonochlorotriazine, was evaluated in the laboratory by attaching the Se-based compound onto cotton fabrics with the following results: (1) Diseleniummonochlorotriazine killed 100% of Gram-positive bacteria (e.g., Staphylococcus aureus) that attempted to bind to the cotton, and (2) Diseleniummonochlorotriazine killed 90% of Gram-negative bacteria. (e.g., Pseudomonas aeruginosa) that attempted to bind to the cotton.
(§3) Example 1. […] The application technique for the organo-selenium compound can be used by, e.g., the textile industry, on an industrial scale to produce an anti-microbial fabric. […]

[2] = tested on: gram-negative and gram-positive bacteria; test: Antimicrobial activity compared with industry requirements; format: cell-based
Description: In one example, the invention is the chemical compound diseleniummonochlorotriazine. Triazines are commonly used in the textile chemistry to synthesis the reactive dye and apply to fabrics as they form covalent bonds with cellulose. Incorporating selenium creates a reactive dye with antimicrobial properties. This same base structure can be used to make diselenocyanuric chloride, diselenocyanuric bromide, diselenocyanuric fluoride, or diselenocyanuric iodine. […] In one example, the antimicrobial agent has the structure: […]

[3] = tested on: Pseudomonas aeruginosa; test: Bacterial killing (CFUs/sample) on cotton fabric treated with the organo-selenium compound, Gram-negative; format: cell-based; conditions: compound attached onto cotton fabric; e.g. Pseudomonas aeruginosa
Description: as §1, §2, §3

[4] = Binding to cotton and resistance to washing of the resulting fabric; format: physicochemical; conditions: attached to cotton yarns as reactive dye
Description: Briefly, the inventors developed organo-selenium compounds that can be attached to cotton yarns and is suitable for applications as reactive dye.

Question: For `Clc1nc([SeH])nc([SeH])n1` [Diseleniummonochlorotriazine, diseleniummonochlorotriazine], which “killed % of Gram-positive bacteria that attempted to bind to the cotton” value ([1]; compound attached onto cotton fabric, e.g. Staphylococcus aureus) is on record?
Answer: 100%

Question: What about the “antimicrobial activity level relative to industry expectations/requirements” value [2] of the same compound?
Answer: matches industry expectations

Question: And the “antimicrobial activity level relative to industry expectations/requirements” value ([2]; listed as diseleniummonochlorotriazine)?
Answer: matches or exceed industrial requirements

Question: And the “killed % of Gram-negative bacteria that attempted to bind to the cotton” value [3]?
Answer: 90%

Question: For `OCC(O)C[Se][Se]CC(O)CO` (stereo not shown), which “antimicrobial activity level relative to industry expectations/requirements” value [2] is on record?
Answer: matches or exceed industrial requirements

Question: For diselenocyanuric chloride, which “killing of Staphylococcus aureus on the fabric (CFUs per sample), in words” value ([1]; treated cotton fabric, FIG. 1A, applied as reactive dye) is on record?
Answer: totally kill

Question: What about the “binding to the cotton and resistance to washing” value [4] of the same compound?
Answer: resistant to multiple washings

Reference: patent publication US20250237010A1, “Selenium Containing Antimicrobial Compound as a Reacitve Dye and Cross-Linking Treatment for Textile Applications” (Texas Tech University System, priority 2021, published 2025)
